pEC50: −log10 of the molar value. Like-named read-outs stand apart in the source and are kept apart here.

The results in this text go back to patent publication US20250041306A1, “TARGETED PROTEASE DEGRADATION (TED) PLATFORM” (EUBULUS BIOTHERAPEUTICS INC., priority 2021, published 2025).

What all share (type): cell-based
The test system of experiment [1] is Human Small Cell Lung Cancer NCI-H82. Briefly: Cell proliferation experiment (Alarm blue), H82. As to the method: (§1) The cells were cultured in conventional ways, and the cells should be passed for at least 2 generations before plating. Cells at the logarithmic growth phase were collected, prepared into single cell suspensions and counted. The concentration of cells was adjusted to desired concentration, and cells were inoculated into a 96-well cell culture plate at 100 μl per well. 100 μL of complete medium of the test compound were added to each well, 2 replicate wells for each concentration were set up, and diluted with a 5-fold gradient, and continued to culture for 72 h. All cells were subjected to EC50 test for corresponding samples.
(§2) The fluorescence intensity of each well was detected using the Alarm blue method, and IC50 was calculated.
(§3) IC50 was calculated according to the following formula:
(§4) [formula] • wherein Min, Max and Slope represent the minimum, maximum and slope respectively.

For experiment [2], the system named is human gastric carcinoma cells N87. The experiment is described as follows: Cell proliferation experiment (Alarm blue), N87. The method, then: as §1, §2, §3, §4
In experiment [3] the test system is Human Colon Cancer cells Colo205. The experiment is described as follows: Cell proliferation experiment (Alarm blue), Colo205. As to the method:
as §1, §2, §3, §4

Experiment [4] relates to Human Small Cell Lung Cancer H69. Briefly: Cell proliferation experiment (Alarm blue), H69. The method, then:
as §1, §2, §3, §4

The subject of experiment [5] is Human Colon Cancer HT-29. The experiment is described as follows: Cell proliferation experiment (Alarm blue), HT-29. As to the method: as §1, §2, §3, §4
[6] abbreviates: H82 cells, 72 h culture, read-out: Anti cell proliferative activity EC50, H82.
[7] abbreviates: N87 cells, 72 h culture, read-out: Anti cell proliferative activity EC50, N87.
The mark [8] stands for this setting: Colo205 cells, 72 h culture, read-out: Anti cell proliferative activity EC50, Colo205.
Setting [9] is: H69 cells, 72 h culture, read-out: Anti cell proliferative activity EC50, H69.
[10] abbreviates: HT-29 cells, 72 h culture, read-out: Anti cell proliferative activity EC50, HT-29.

Turning to `C[C@H](NC(=O)CCCCCN1C(=O)CC(SC[C@H](N)C(=O)N[C@@H](Cc2ccccc2)C(=O)N[C@H]2CSSC[C@@H](C(=O)N[C@H](CO)[C@@H](C)O)NC(=O)[C@H]([C@@H](C)O)NC(=O)[C@H](CCCCN)NC(=O)[C@@H](Cc3c[nH]c4ccccc34)NC(=O)[C@H](Cc3ccccc3)NC2=O)C1=O)C(=O)N[C@@H](C)C(=O)N[C@@H](CC(N)=O)C(=O)Nc1ccc(COC(=O)N(CCC#Cc2ccc3c(c2)CN(C2CCC(=O)NC2=O)C3=O)C2CCC(NC(=O)N3CCN(c4ccc(Nc5ncc(Cl)c(Nc6ccccc6C(N)=O)n5)cc4)CC3)CC2)cc1` (stereo partly drawn) [UB-181285], the pEC50 in experiment [1] (setting [6]) is 6.90; in experiment [2] (setting [7]) it was 7.30; in experiment [3] (setting [8]), 7.21; in experiment [4] (setting [9]), less than 6.00; in experiment [5] (setting [10]), 6.28.
On the same counts, the results for `CC(C)c1cc(-c2nnc(O)n2-c2ccc3c(ccn3CCC3CCN(C(=O)NCCOCCOCCOCCOCCOCCOCCOCCOCCC(=O)N[C@@H](CSC4CC(=O)N(CCCCCC(=O)N[C@@H](C)C(=O)N[C@@H](C)C(=O)N[C@@H](CC(N)=O)C(=O)Nc5ccc(COC(=O)N(CCC#Cc6ccc7c(c6)CN(C6CCC(=O)NC6=O)C7=O)C6CCC(NC(=O)N7CCN(c8ccc(Nc9ncc(Cl)c(Nc%10ncc(Cl)c(Nc%11ccccc%11C(N)=O)n%10)n9)cc8)CC7)CC6)cc5)C4=O)C(=O)N[C@H](Cc4ccccc4)C(=O)N[C@H]4CSSC[C@@H](C(=O)N[C@H](CO)[C@@H](C)O)NC(=O)[C@H]([C@@H](C)O)NC(=O)[C@H](CCCCN)NC(=O)[C@@H](Cc5c[nH]c6ccccc56)NC(=O)[C@H](Cc5ccccc5)NC4=O)CC3)c2)c(O)cc1O` (stereo partly drawn) [UB-181289] are 6.39, 6.16, 6.21, less than 6.00 and less than 6.00.
For the molecule `CC(C)c1cc(-c2nnc(O)n2-c2ccc3c(ccn3CCC3CCN(C(=O)CCSC4CC(=O)N(CCCCCC(=O)N[C@@H](C)C(=O)N[C@@H](C)C(=O)N[C@@H](CC(N)=O)C(=O)Nc5ccc(COC(=O)N(CCC#Cc6ccc7c(c6)CN(C6CCC(=O)NC6=O)C7=O)C6CCC(NC(=O)N7CCN(c8ccc(Nc9ncc(Cl)c(Nc%10ccccc%10C(N)=O)n9)cc8)CC7)CC6)cc5)C4=O)CC3)c2)c(O)cc1O.O=CO` (stereo partly drawn) [UB-181290], the “Anti cell proliferative activity EC50, H82” value in experiment [1] (H82 cells, 72 h culture) is reported as “insoluble”. The “Anti cell proliferative activity EC50, N87” value in experiment [2] (N87 cells, 72 h culture) is “insoluble”. For the same molecule, the “Anti cell proliferative activity EC50, Colo205” value in experiment [3] (Colo205 cells, 72 h culture) is reported as “insoluble”. Also, in experiment [4] (H69 cells, 72 h culture), the “Anti cell proliferative activity EC50, H69” value is “insoluble”. The “Anti cell proliferative activity EC50, HT-29” value in experiment [5] (HT-29 cells, 72 h culture) is reported as “insoluble”.
With `CC(C)c1cc(-c2nnc(O)n2-c2ccc3c(ccn3CCC3CCN(C(=O)CCSSCCOC(=O)N(CCC#Cc4ccc5c(c4)CN(C4CCC(=O)NC4=O)C5=O)C4CCC(NC(=O)N5CCN(c6ccc(Nc7ncc(Cl)c(Nc8ccccc8C(N)=O)n7)cc6)CC5)CC4)CC3)c2)c(O)cc1O` (stereo not drawn) [UB-181294], the pEC50 in experiment [1] (setting [6]) is 6.61; in experiment [2] (setting [7]), 6.09; in experiment [3] (setting [8]), 6.52; in experiment [4] (setting [9]), less than 6.00; in experiment [5] (setting [10]) it was 6.06.
The matching figures for `CC(C)c1cc(-c2nnc(O)n2-c2ccc3c(ccn3CCC3CCN(C(=O)NCCOCCOCCOCCOCCOCCOCCOCCOCCC(=O)N[C@@H](CSSCCOC(=O)N(CCC#Cc4ccc5c(c4)CN(C4CCC(=O)NC4=O)C5=O)C4CCC(NC(=O)N5CCN(c6ccc(Nc7ncc(Cl)c(Nc8ccccc8C(N)=O)n7)cc6)CC5)CC4)C(=O)N[C@H](Cc4ccccc4)C(=O)N[C@H]4CSSC[C@@H](C(=O)N[C@H](CO)[C@@H](C)O)NC(=O)[C@H]([C@@H](C)O)NC(=O)[C@H](CCCCN)NC(=O)[C@@H](Cc5c[nH]c6ccccc56)NC(=O)[C@H](Cc5ccccc5)NC4=O)CC3)c2)c(O)cc1O` (stereo partly drawn) [UB-181297]: less than 6.00, less than 6.00, less than 6.00, less than 6.00 and less than 6.00.
For the molecule `CNC(=O)c1ccccc1Nc1nc(Nc2ccc(N3CCN(C(=O)NC4CCC(N(CCC#Cc5ccc6c(c5)CN(C5CCC(=O)NC5=O)C6=O)C(=O)OCc5ccc(NC(=O)[C@H](CC(N)=O)NC(=O)[C@H](C)NC(=O)[C@H](C)NC(=O)CCCCCN6C(=O)CC(SC[C@H](NC(=O)[C@H](CC(=O)O)NC(=O)[C@H](CC(=O)O)NC(=O)[C@H](CCCNC(=N)N)NC(=O)[C@H](CC(=O)O)NC(=O)CCC(NC(=O)c7ccc(NCc8cnc9nc(N)[nH]c(=O)c9n8)cc7)C(=O)O)C(=O)O)C6=O)cc5)CC4)CC3)cc2)ncc1Cl` (stereo partly drawn) [UB-181298], the pEC50 in experiment [1] (72 h) was 8.06; in experiment [2] (72 h), 6.56; in experiment [3] (72 h), 8.39; in experiment [4] (72 h), less than 6.00; in experiment [5] (72 h), less than 6.00.
Regarding `CNC(=O)c1ccccc1Nc1nc(Nc2ccc(N3CCN(C(=O)N[C@H]4CC[C@@H](N(CCC#Cc5ccc6c(c5)CN(C5CCC(=O)NC5=O)C6=O)C(=O)OCCSSC[C@H](N)C(=O)N[C@H](Cc5ccccc5)C(=O)N[C@H]5CSSC[C@@H](C(=O)N[C@H](CO)[C@@H](C)O)NC(=O)[C@H]([C@@H](C)O)NC(=O)[C@H](CCCCN)NC(=O)[C@@H](Cc6c[nH]c7ccccc67)NC(=O)[C@H](Cc6ccccc6)NC5=O)CC4)CC3)cc2)ncc1Cl` (stereo partly drawn) [UB-181299], the pEC50 was 6.61 in experiment [1] (setting [6]); 6.17 in experiment [2] (setting [7]); 6.52 in experiment [3] (setting [8]); less than 6.00 in experiment [4] (setting [9]); less than 6.00 in experiment [5] (setting [10]).
`NC(=O)c1ccccc1Nc1nc(Nc2ccc(N3CCN([C@H]4CC[C@@H](NCCC#Cc5ccc6c(c5)CN(C5CCC(=O)NC5=O)C6=O)CC4)CC3)cc2)ncc1Cl` (stereo partly drawn) [UB-181315]: the pEC50 is 6.50 in experiment [1] (Homo sapiens, NCI-H82, H82 cells, 72 h culture, read-out: Anti cell proliferative activity EC50, H82); less than 6.00 in experiment [2] (Homo sapiens, N87 cells, 72 h culture, read-out: Anti cell proliferative activity EC50, N87); 6.14 in experiment [3] (Homo sapiens, COLO 205, Colo205 cells, 72 h culture, read-out: Anti cell proliferative activity EC50, Colo205); less than 6.00 in experiment [4] (Homo sapiens, NCI-H69, H69 cells, 72 h culture, read-out: Anti cell proliferative activity EC50, H69); less than 6.00 in experiment [5] (Homo sapiens, HT-29 cells, 72 h culture, read-out: Anti cell proliferative activity EC50, HT-29).
In the case of `CNC(=O)c1ccccc1Nc1nc(Nc2ccc(N3CCN(C(=O)N[C@H]4CC[C@@H](N(CCC#Cc5ccc6c(c5)CN(C5CCC(=O)NC5=O)C6=O)C(=O)OCCSSC[C@H](NC(=O)[C@H](CC(=O)O)NC(=O)[C@H](CC(=O)O)NC(=O)[C@H](CCCNC(=N)N)NC(=O)[C@H](CC(=O)O)NC(=O)CCC(NC(=O)c5ccc(NCc6cnc7nc(N)[nH]c(=O)c7n6)cc5)C(=O)O)C(=O)O)CC4)CC3)cc2)ncc1Cl` (stereo partly drawn) [UB-181321], the pEC50 is 6.77 in experiment [1] (72 h); less than 6.00 in experiment [2] (72 h); 6.62 in experiment [3] (72 h); less than 6.00 in experiment [4] (72 h); less than 6.00 in experiment [5] (72 h).
As for `N=C(N)NCCC[C@H](NC(=O)[C@H](CC(=O)O)NC(=O)CC[C@H](NC(=O)c1ccc(NCc2cnc3nc(N)[nH]c(=O)c3n2)cc1)C(=O)O)C(=O)N[C@@H](CC(=O)O)C(=O)N[C@@H](CC(=O)O)C(=O)N[C@@H](CSSCCOC(=O)N(CCC#Cc1ccc2c(c1)CN(C1CCC(=O)NC1=O)C2=O)C1CCC(NC(=O)N2CCN(c3ccc(Nc4ncc(Cl)c(Nc5ccccc5C(N)=O)n4)cc3)CC2)CC1)C(=O)O` (stereo partly drawn) [UB-181327], the pEC50 in experiment [1] (setting [6]) was 6.55; in experiment [2] (setting [7]), less than 6.00; in experiment [3] (setting [8]), 6.61; in experiment [4] (setting [9]) it was less than 6.00; in experiment [5] (setting [10]), 6.07.
For the molecule `CC[C@@H]1C(=O)N(C)c2cnc(Nc3ccc(-c4cn([C@H]5CC[C@@H](N(CCOCCC#Cc6cccc7c6CN(C6CCC(=O)NC6=O)C7=O)C(=O)OCc6ccc(NC(=O)[C@H](CC(N)=O)NC(=O)[C@H](C)NC(=O)[C@H](C)NC(=O)CCCCCN7C(=O)CC(SC[C@H](N)C(=O)N[C@@H](Cc8ccccc8)C(=O)N[C@H]8CSSC[C@@H](C(=O)N[C@H](CO)[C@@H](C)O)NC(=O)[C@H]([C@@H](C)O)NC(=O)[C@H](CCCCN)NC(=O)[C@@H](Cc9c[nH]c%10ccccc9%10)NC(=O)[C@H](Cc9ccccc9)NC8=O)C7=O)cc6)CC5)nn4)cc3OC)nc2N1C1CCCC1` (stereo partly drawn) [UB-181334], the pEC50 in experiment [1] (72 h) was 6.00; in experiment [2] (72 h), 6.03; in experiment [3] (72 h), 6.54; in experiment [4] (72 h), 6.02; in experiment [5] (72 h), less than 6.00.
On the same counts, the results for `CC[C@@H]1C(=O)N(C)c2cnc(Nc3ccc(-c4cn([C@H]5CC[C@@H](N(CCOCCC#Cc6cccc7c6CN(C6CCC(=O)NC6=O)C7=O)C(=O)OCCSSC[C@H](NC(=O)[C@H](CC(=O)O)NC(=O)[C@H](CC(=O)O)NC(=O)[C@H](CCCNC(=N)N)NC(=O)[C@H](CC(=O)O)NC(=O)CC[C@H](NC(=O)c6ccc(NCc7cnc8nc(N)[nH]c(=O)c8n7)cc6)C(=O)O)C(=O)O)CC5)nn4)cc3OC)nc2N1C1CCCC1` (stereo partly drawn) [UB-181336] are less than 6.00, less than 6.00, less than 6.00, less than 6.00 and less than 6.00.
